Results published in publication PMC5655689, “Therapeutic potential of the phosphino Cu(I) complex (HydroCuP) in the treatment of solid tumors” (Scientific Reports, 2017).

Key:
[1] = system: LoVo human colon cancer spheroids; experiment: 3D spheroid cell viability, acid phosphatase (APH) assay, LoVo; assay type: cell-based; settings: 72 h
Protocol: (§1) In order to improve the predictive capacity of the in vitro assays, we tested HydroCuP activity in two 3D cell cultures of human colon cancer cells, HCT-15 and LoVo. The colon cancer spheroids were treated with HydroCuP for 72 h and the cell viability was assessed by means of the acid phosphatase (APH) assay (Fig. 1, panel A).
(§2) Figure 1 Activity in 3D cell cultures. (A) Spheroids (2.5 × 10^3 cells/well) were treated for 72 h with increasing concentrations of tested compounds. The growth inhibitory effect was evaluated by means of APH test. IC50 values were calculated from the dose-survival curves by four parameter logistic model (P < 0.05). SD = standard deviation.
(§3) Spheroids were initiated in liquid overlay by seeding 2.5 × 10^3 HCT-15 and LoVo cells/well in phenol red-free RPMI-1640 medium (Sigma Chemical Co.), containing 10% FCS and supplemented with 20% methyl cellulose stock solution. A total of 150 μl of this cell suspension was transferred to each well of a round bottom non-tissue culture treated 96 well-plate (Greiner Bio-one, Kremsmünster, Austria) to allow spheroid formation within 72 h.
(§4) A modified APH assay, which is based on quantification of cytosolic acid phosphatase activity, was used for determining cell viability in spheroids. Briefly, the pre-seeded spheroids were treated with fresh medium containing the compound to be studied at the appropriate concentration (range 5–150 μM). Triplicate cultures were established for each treatment. After 72 h, each well was treated with 100 μL of the assay buffer (0.1 M sodium acetate, 0.1% Triton-X-100, supplemented with ImmunoPure p-nitrophenyl phosphate; Sigma Chemical Co.) and, following 3 h of incubation, 10 μL of 1 M NaOH solution were added. The inhibition of the cell growth induced by the tested complexes was detected by measuring the absorbance of each well at 405 nm, using a Bio-Rad 680 microplate reader. Mean absorbance for each drug dose was expressed as a percentage of the control untreated well absorbance (T/C) and plotted vs drug concentration. IC50 values, the drug concentrations that reduce the mean absorbance at 405 nm 50% of those in the untreated control wells, were calculated by four-parameter logistic (4-PL) model. Evaluation was based on means from at least four independent experiments.

[2] = system: p-PERK and p-IRE1 (UPR pathway); experiment: IHC analysis of p-PERK and p-IRE1 in LLC tumor samples; assay type: in vivo, mouse; settings: later-stage regimen
Excerpt: In order to investigate the in vivo activation of the UPR induced by HydroCuP, the levels of the phospho-PERK (p-PERK) and phospho-IRE1 (p-IRE1) were detected in tumor samples derived from treated LCC-bearing mice (following later-stage regimen). […] In control samples, p-PERK staining was found moderate in cytoplasm (in about 40% cell population) and intense in perinuclear-ER (about 5% of cell population). […] With regard to the […], p-IRE1, control tumors were weakly positive in cytoplasm (in about 15% cell population).
Figure 6 IHC analysis of p-PERK and p-IRE1 expression in LLC tumor samples. (A) Pictures show representative patterns of p-PERK and p-IRE1 expression by IHC in control LLC tumor samples (a and c) and in HydroCuP-treated tumor samples (b and d); magnification: ×10. (B) p-PERK (a) and p-IRE1 (b) values, evaluated in LLC tumor sections. The quantification of IHC images was performed by using Image J software. Columns indicate quantitative analysis in n = 3 different tumors per group; *P < 0.05.
To evaluate p-PERK and p-IRE1 expression, five-micron-thick formalin-fixed, paraffin-embedded (FFPE) tumor samples of LLC models (3 tumors/group, 3 sections/tumor and 3 images/sections) were stained by IHC using anti-human p-PERK (Thr981, Santa Cruz) or p-IRE1 (Ser724, Abcam) primary antibodies according to the manufacturer’s instructions. IHC was performed using a Leica Bond III Autostainer (Leica). Antigen retrieval was performed in citrate buffer for 15 min. Sections were counter-stained with Mayer’s haematoxylin. IHC results were evaluated by one experienced pathologist with no prior knowledge of experimental data. The quantification of IHC images was performed by using Image J software.

[3] = system: HCT-15 human colon cancer spheroids; experiment: 3D spheroid cell viability, acid phosphatase (APH) assay, HCT-15; assay type: cell-based; settings: HCT-15 spheroids, 72 h
Protocol: as §1, §2, §3, §4

[4] = system: LoVo colorectal oxaliplatin-sensitive xenograft; experiment: In vivo activity toward LoVo (OXP-sensitive) tumor xenograft in BALB/c nu/nu mice; settings: 30 mg/kg daily i.p. from day 14, day 30
Protocol: (§5) To this aim, we developed the OXP-sensitive and OXP-resistant LoVo xenografts in BALB/c nu/nu mice. […] OXP-sensitive or OXP-resistant LoVo cells (1 × 10^7) were injected in the flank of mice. Once tumor was established (tumor volumes of about 0.4 cm^3, around 14 days after tumor inoculation), mice were randomly divided into six groups (6 animals per group, 8 controls). The HydroCuP-treated groups (6 mice each group) received daily 30 mg/kg by i.p. injection and the OXP-treated group was given 2 mg/kg by i.p. injection. At day 30, animals were sacrificed, and the inhibition of tumor growth was determined (Fig. 4, panel A). Measurements of body weights were recorded from day 14 every 2 days until the experimental endpoint (Fig. 4, panel B).
(§6) (A) LoVo and LoVo-OXP tumor xenografts in 6-week-old BALB/c nu/nu mice by injecting 1 × 10^7 tumor cells subcutaneously on the left dorsal flank. After 24 h from tumor implantation, mice randomly divided into six groups (6 animals per group). Chemotherapy delayed until day 14 (tumor volumes of about 0.4 cm^3). From day 14, HydroCuP dosed daily at 30 mg/kg i.p., OXP dosed daily at 2 mg/kg i.p. At day 30, animals sacrificed, and the inhibition of tumor growth determined by comparing the volume of the control group and the treatment group expressed as percentage referred to the control animals. Error bars indicate the S.D. *p < 0.05, **p < 0.01, with respect to control. […] Body weight was measured every two days and was taken as a parameter of systemic toxicity. The error bars indicate the S.D. **P < 0.01; *P < 0.05.
(§7) LoVo and LoVo-OXP tumor xenografts were established in 6-week-old BALB/c nu/nu mice by injecting 1 × 10^7 tumor cells subcutaneously (100 μL in serum free medium) on the left dorsal flank. After 24 h from tumor implantation, mice were randomly divided into six groups (6 animals per group, 8 controls). Chemotherapy was delayed until the tumor was about 0.4 cm^3 (day 14). From day 14, HydroCuP was dosed daily at 30 mg/kg i.p. whereas OXP was dosed daily at 2 mg/kg i.p. Measurements of body weights and tumor volumes were recorded from day 14 every 2 days until the experimental endpoint. The long axis (L) and the short axis (S) were measured with callipers, and the tumor volume (V) was calculated using the following equation: V = SxSxL/2. At day 30, animals were sacrificed, and the inhibition of tumor growth was determined by comparing the volume of the control group and the treatment group expressed as percentage referred to the control animals.

[5] = system: LoVo colorectal oxaliplatin-sensitive xenograft; settings: mouse, in vivo, ip, 30 mg/kg
Protocol: as §5, §6, §7

[6] = Nephrotoxicity: urinary biomarkers (uTP, NAG) in Sprague Dawley rats; assay type: in vivo, rat; settings: single i.p. HydroCuP 50 mg/kg vs CDDP 1.5 mg/kg
Protocol: Figure 5 Neurotoxicity studies. […] Bar: 500 µm. […] Nephrotoxicity studies. […] Error bars indicate the S.D. The potential nephrotoxic effect of HydroCuP was evaluated by measuring some specific biomarkers in urines obtained from 8-week-old male Sprague Dawley rats treated with a single i.p. injection of HydroCuP and CDDP. Urines of the treated animals were collected after 24, 72 and 120 h, and urinary total protein (uTP) and N-acetyl-β-D-glucosaminidase (NAG) were evaluated as signs of nephrotoxicity. […] On the contrary, treatment with HydroCuP determined a 24 h excretion of uTP roughly 12 times lower than that recorded with CDDP (Fig. 5, panel D). Following 120 h, the levels of uTP excreted by HydroCuP were 11 times lower compared with the reference metallodrug. Eight-week-old male Sprague Dawley rats were randomly allocated to five groups (five animals per group) and treated with a single i.p. injection of HydroCuP (50 mg/kg) or the vehicle solution (0.2 mL saline solution, control). Cisplatin (1.5 mg/kg,) was also used under the same experimental conditions for comparison purposes. […] Later, urines were centrifuged (150 g for 10 minutes at room temperature) to discard debris and aliquoted to measure creatinine, uTP and NAG. Urine creatinine assays were performed using creatinine assay kit from Sigma Chemical Co. (St. Louis, MO). uTPs were measured by means of BioRad Total Protein Test (Hercules, CA). Urinary NAG was measured spectrophotometrically with the NAG kit (Roche diagnostics, Basel, Switzerland) according to the manufacturer’s protocols. uTP and NAG are expressed as grams per millimoles of creatinine (g mmol^−1 creatinine).

[7] = system: 2D human cancer cell cultures; parameters: method as in PMID 18251492, PMID 21388518; settings: cited from earlier work
26S proteasome = system: 26S proteasome; parameters: method as in PMID 21388518; settings: cited from earlier work
[8] = system: LoVo colorectal oxaliplatin-resistant xenograft; settings: mouse, in vivo, ip, 30 mg/kg
Protocol: as §5, §6, §7

F[P-](F)(F)(F)(F)F.OC[P+](CO)(CO)[Cu-3]([P+](CO)(CO)CO)([P+](CO)(CO)CO)[P+](CO)(CO)CO [HydroCuP, [Cu(thp)4][PF6]]
IC50 fold lower than CDDP [1]: about 2.5
IC50 ([1]; APH test, read-out: IC50 (μM) ± SD LoVo): 23.3 ± 3.2 µM
Cytoplasmic p-PERK positivity vs control [2]: no difference in cytoplasmic p-PERK positivity
Perinuclear-ER p-PERK staining ([2]; control about 5% of cell population): about 30%
Cytoplasmic p-IRE1 positivity (cell population) ([2]; control about 15% cell population): about 35%
IC50 fold lower than CDDP [3]: about 2.5
IC50 ([3]; APH test, read-out: IC50 (μM) ± SD HCT-15): 27 ± 4.25 µM
Inhibition of tumor growth (decrease in final tumor volume) [4]: about 65%
Body weight and health vs control group [5]: No significant difference in body weight
NAG activity, times lower than CDDP ([6]; urine 24, 72, 120 h): up to 12
24 h excretion of uTP, times lower than CDDP ([6]; urine 24 h): roughly 12
uTP excreted, times lower than CDDP ([6]; urine 120 h): 11
Fold more cytotoxic than CDDP [7]: up to 50
Fold more cytotoxic than OXP [7]: ≤ 30
Effect on CT-L, T-L and C-L catalytic activities of 26S proteasome (26S proteasome): inhibit chymotrypsin-like (CT-L), trypsin-like (T-L) and caspase-like (C-L) catalytic activities of 26S proteasome
Body weight and health vs control group [8]: No significant difference in body weight
